From patent US12545695B2, “Compounds for inhibiting neovascularization factors and use thereof” (UNIST (ULSAN NATIONAL INSTITUTE OF SCIENCE AND TECHNOLOGY), priority 2019, dated 2026)

Columns and labels:
HIF-1α = test: Western blot of HIF-1α in Muller cells (MIO-M1) under hypoxia; type: cell-based; conditions: MIO-M1, hypoxic chamber 1% O2 (FIG. 8)
Description: (§1) Muller cells (MIO-M1) were cultured at 37° C. and 5% CO2, and DMEM-low glucose (Sigma) including 10% fetal bovine serum and 1% penicillin & streptomycin was used as the medium. A hypoxic chamber was maintained at 37° C., 5% CO2 and 1% O2.
Muller cells (MIO-M1) were seeded in the number of 4×10^5 on a 60-millimeter plate and cultured in 3 ml of medium for 24 hours. The next day, the cells were treated with SMX, a mitochondrial heat shock protein 90 (TRAP1) inhibitor according to the concentrations shown in the drawing and cultured in a hypoxic chamber for 6 hours. Whole cell lysates were made from the cultured cells, electrophoresed, transferred to a PVDF membrane, and then treated with a primary antibody at 4° C. for 18 hours. The next day, the whole cell lysates were treated with a secondary antibody for 1 hour and protein expression was analyzed using a western blotting detection reagent.
as §1, with “O2. […] The next day, the whole cell lysates were treated with a secondary antibody for 1 hour and protein expression was analyzed using a western blotting detection reagent.” for “O2.”

[1] = tested on: neovascularization factors; test: Expression of neovascularization factors in Muller cells (western blot / PCR RNA level analysis); type: cell-based; conditions: MIO-M1, 1% O2 (FIG. 9)
Description: Muller cells were treated with gamitrinib and SMX at 3 uM and cultured in a 1% O2 environment for 8 hours, and then total RNA was extracted (Qiagen, total RNA extraction kit). cDNA was synthesized from 1 ug of total RNA (NEB, cDNA synthesis kit). After angiogenic factors were synthesized using PCR, the RNA level was analyzed by agarose electrophoresis.
Muller cells (MIO-M1) were cultured at 37° C. and 5% CO2, and DMEM-low glucose (Sigma) including 10% fetal bovine serum and 1% penicillin & streptomycin was used as the medium. A hypoxic chamber was maintained at 37° C., 5% CO2 and 1% O2. Muller cells (MIO-M1) were seeded in the number of 4×10^5 on a 60-millimeter plate and cultured in 3 ml of the medium for 24 hours. The next day, the cells were treated with SMx, a mitochondrial heat shock protein 90 (TRAP1) inhibitor, and gamitrinib and PU-H71, which are previously developed N-terminal domain inhibitors of hsp90s, according to the concentrations shown in the drawing, and cultured in a hypoxic chamber for 24 hours. Whole cell lysates were made from the cultured cells, electrophoresed, transferred to a PVDF membrane, and then treated with a primary antibody at 4° C. for 18 hours. The next day, the whole cell lysates were treated with a secondary antibody for 1 hour and protein expression was analyzed using a western blotting detection reagent.

TRAP-1 = test: ATPase activity assay (PiColorLock Gold Phosphate Detection Kit); type: biochemical; conditions: TRAP1 0.5 μM, 0.2 mM ATP, inhibitor 0.520 μM preincubated 30 minutes (FIG. 16)
Description: ATPase activity was measured by measuring the release of inorganic phosphates through the PiColorLock Gold Phosphate Detection Kit (Innova Biosciences) according to the manufacturer's manual. TRAP1 (0.5 μM) was cultured with 0.2 mM ATP in 100 mM Tris, 20 mM KCl, and 6 mM MgCl2 under the conditions of pH 7.0 and 37° C. for 3 hours. Thereafter, the PiColorLock Gold reagent and an accelerator (100:1) were added to a 100 μL ATP hydrolyzate sample. After culturing at 25° C. for 5 minutes, the change in color was stopped by adding 10 μL of a stop solution thereto, and the absorbance at 620 nm was measured by SYNERGY NEO microplate reader (BioTek Instruments).
For inhibitory ability analysis, TRAP1 was cultured with a predetermined concentration (0.520 μM) of inhibitor for 30 minutes and then stirred with ATP. Absorbance values were normalized to a DMSO control and data was expressed as % ATPase activity.
For inhibitory ability analysis, TRAP-1 was cultured with a predetermined concentration (0.520 μM) of inhibitor for 30 minutes and then stirred with ATP. Absorbance values were normalized to a DMSO control and data was expressed as % ATPase activity.

[2] = tested on: oxygen-induced retinopathy mouse model; test: Oxygen-induced retinopathy mouse model, intraocular injection, retinal vascular analysis; type: in vivo, C57BL/6J mice; conditions: 1 ul of 0.15 mM intraocularly injected once at P12, analysis P17 (FIG. 17)
Description: An oxygen-induced retinopathy mouse model was induced by rearing young C57BL/6J (Hyochang Science Inc.) mice aged 7 days after birth (P7) in a hyperoxic chamber (Coy Lab. in vivo chamber, 75% O2) for 5 days (P12), and then rearing the mice in a normoxic environment for 5 days (P17). After the young mice were removed from the hyperoxic chamber (P12), 1 ul of SMX was intraocularly injected once at a concentration of 0.15 mM (0.1% DMSO). The SMX used for ocular injection was used after being diluted in phosphate buffer saline (1×PBS) to 0.1%, and 0.1% DMSO in 1×pbs was used in control mice. In the case of Eylea (aflibercept, anti-VEGFab), 40 ug was diluted in 1 ul and 1 ul was intraocularly injected.
The oxygen-induced retinopathy mouse model was formed, and then perfused with 1×PBS and 4% PFA. After mouse eyes were extracted and fixed in 4% PFA, the retinas were isolated. The isolated retinas were washed with 1×PBS, and then blocked (0.1% BSA, 0.1% Triton X-100 in 1×PBS) at room temperature for 1 hour. The retinas were treated with a CD31 blood-vessel staining antibody (CD31, Cell Signaling, 1:100) overnight at 4° C. […] Blood vessel staining was analyzed under a fluorescence microscope (Zen, Axio Zoom). […]
The oxygen-induced retinopathy mouse model was formed, and then perfused with 1×PBS and 4% PFA. […] Blood vessel staining was analyzed under a fluorescence microscope (Zen, Axio Zoom). […]

COC1=C(OC)C(=O)C(CCCCCCCCCC[P+](c2ccccc2)(c2ccccc2)c2ccccc2)=C(C)C1=O [SMx]
expression of HIF-1α (HIF-1α): suppressed
expression of well-known neovascularization factors [1]: suppressed
ATPase activity of TRAP-1 (TRAP-1): significantly increased according to the concentration
avascular area of the retina [2]: significantly reduced compared to the Eylea-injected mouse retina
neovascular area of the retina [2]: reduced to the same level as that of the Eylea-injected mouse retina
